# Biological target: wild type c-kit (Homo sapiens (Human), UniProt P10721)
# Experiment: PathScan phospho c-kit (Tyr719) sandwich ELISA in SCF-stimulated M-07e cells (pKIT assay)
# Assay type: cell-based
# Conditions: ELISA assay (values not marked *)
# Summary of the method: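 Serum- and GM-CSF-starved M-07e cells (4 h) pretreated 60 min at 37 °C with an 8-point compound series in duplicate (0.25% DMSO), then stimulated with human SCF (500 ng/mL stock) 10 min at room temperature. Lysate c-kit Tyr719 phosphorylation quantified by sandwich ELISA with TMB read-out; IC50 from 4-parameter logistic fit.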
# wild type c-kit, sequence (P10721 26-976): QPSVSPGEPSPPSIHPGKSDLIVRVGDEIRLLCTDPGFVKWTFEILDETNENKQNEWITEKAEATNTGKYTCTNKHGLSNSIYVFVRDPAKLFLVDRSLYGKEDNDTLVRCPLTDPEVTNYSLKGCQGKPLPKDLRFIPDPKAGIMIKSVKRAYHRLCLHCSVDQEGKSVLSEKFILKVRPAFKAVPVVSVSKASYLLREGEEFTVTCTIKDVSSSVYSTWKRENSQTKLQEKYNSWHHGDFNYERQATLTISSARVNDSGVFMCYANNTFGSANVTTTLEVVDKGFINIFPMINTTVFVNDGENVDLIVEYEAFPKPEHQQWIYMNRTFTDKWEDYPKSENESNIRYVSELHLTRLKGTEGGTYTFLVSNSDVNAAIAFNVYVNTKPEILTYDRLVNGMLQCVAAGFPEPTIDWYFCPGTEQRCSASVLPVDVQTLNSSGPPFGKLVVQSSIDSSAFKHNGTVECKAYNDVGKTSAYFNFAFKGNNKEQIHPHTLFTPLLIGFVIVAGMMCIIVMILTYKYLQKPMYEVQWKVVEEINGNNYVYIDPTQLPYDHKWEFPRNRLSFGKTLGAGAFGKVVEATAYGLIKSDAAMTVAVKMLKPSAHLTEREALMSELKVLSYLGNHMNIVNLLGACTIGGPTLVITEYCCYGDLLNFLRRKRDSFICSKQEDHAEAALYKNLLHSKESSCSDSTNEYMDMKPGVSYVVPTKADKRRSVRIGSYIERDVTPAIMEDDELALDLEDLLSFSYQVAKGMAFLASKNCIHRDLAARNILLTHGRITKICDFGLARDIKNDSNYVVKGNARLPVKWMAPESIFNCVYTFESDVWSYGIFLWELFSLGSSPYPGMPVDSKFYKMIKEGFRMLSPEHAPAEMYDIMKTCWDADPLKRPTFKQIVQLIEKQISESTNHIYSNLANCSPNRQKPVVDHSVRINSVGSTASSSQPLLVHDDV
row,Structure (SMILES),IC50
1,"[2H]C([2H])([2H])OCCNc1ccn2ncc(C(=O)Nc3cc(-c4nnn(C5CN(C(=O)OC)C5)n4)ccc3C)c2c1 [Example 100, methyl 3-(5-(3-(5-((2-(methoxy-d3)ethyl)amino)pyrazolo[1,5-a]pyridine-3-carboxamido)-4-methylphenyl)-2H-tetrazol-2-yl)azetidine-1-carboxylate]",33.8 nM
2,"Cc1ccc(-n2nnc([C@H]3CC3(F)F)n2)cc1NC(=O)c1cnn2ccc(-c3cnn(CCO)c3)cc12 (single isomer, unassigned) [Example 211, (R)-N-(5-(5-(2,2-difluorocyclopropyl)-2H-tetrazol-2-yl)-2-methylphenyl)-5-(1-(2-hydroxyethyl)-1H-pyrazol-4-yl)pyrazolo[1,5-a]pyridine-3-carboxamide or (S)-N-(5-(5-(2,2-difluorocyclopropyl)-2H-tetrazol-2-yl)-2-methylphenyl)-5-(1-(2-hydroxyethyl)-1H-pyrazol-4-yl)pyrazolo[1,5-a]pyridine-3-carboxamide]",2.6 nM
3,"O=C(Nc1cc(-c2nnn(CC3CC3(F)F)n2)ccc1Cl)c1cnn2ccccc12 (stereo not drawn) [Example 16, N-(2-chloro-5-(2-((2,2-difluorocyclopropyl)methyl)-2H-tetrazol-5-yl)phenyl)pyrazolo[1,5-a]pyridine-3-carboxamide]",2.3 nM
4,"[2H]C([2H])([2H])c1ccc(-c2nnn(C3CN(C(=O)OC)C3)n2)cc1NC(=O)c1cnn2ccc(NCCOC)cc12 [Example 118, methyl 3-(5-(3-(5-((2-methoxyethyl)amino)pyrazolo[1,5-a]pyridine-3-carboxamido)-4-(methyl-d3)phenyl)-2H-tetrazol-2-yl)azetidine-1-carboxylate]",22.7 nM
5,"Cc1ccc(-c2nnn(C3CN(S(=O)(=O)C4COC4)C3)n2)cc1NC(=O)c1cnn2ccccc12 [Example 183, N-(2-methyl-5-(2-(1-(oxetan-3-ylsulfonyl)azetidin-3-yl)-2H-tetrazol-5-yl)phenyl)pyrazolo[1,5-a]pyridine-3-carboxamide]",45.4 nM
6,"COCCNc1ccn2ncc(C(=O)Nc3cc(-c4nnn(CCCC(F)(F)F)n4)ccc3C)c2c1 [Example 116, 5-((2-methoxyethyl)amino)-N-(2-methyl-5-(2-(4,4,4-trifluorobutyl)-2H-tetrazol-5-yl)phenyl)pyrazolo[1,5-a]pyridine-3-carboxamide]",3.2 nM
7,"Cc1ccc(-c2nnn(C3CN(S(C)(=O)=O)C3)n2)cc1NC(=O)c1cnn2ccc(CCC(C)(C)O)cc12 [Example 155, 5-(3-hydroxy-3-methylbutyl)-N-(2-methyl-5-(2-(1-(methylsulfonyl)azetidin-3-yl)-2H-tetrazol-5-yl)phenyl)pyrazolo[1,5-a]pyridine-3-carboxamide]",55.9 nM
8,"COC[C@@](C)(O)Cn1cc(-c2ccn3ncc(C(=O)Nc4cc(-c5nnn(C6CC6)n5)c(F)cc4C)c3c2)c(C)n1 (single isomer, unassigned) [Example 249, (S)-N-(5-(2-cyclopropyl-2H-tetrazol-5-yl)-4-fluoro-2-methylphenyl)-5-(1-(2-hydroxy-3-methoxy-2-methylpropyl)-3-methyl-1H-pyrazol-4-yl)pyrazolo[1,5-a]pyridine-3-carboxamide or (R)-N-(5-(2-cyclopropyl-2H-tetrazol-5-yl)-4-fluoro-2-methylphenyl)-5-(1-(2-hydroxy-3-methoxy-2-methylpropyl)-3-methyl-1H-pyrazol-4-yl)pyrazolo[1,5-a]pyridine-3-carboxamide]",0.7 nM
9,"Cc1nn([C@H](C)[C@@H](C)O)cc1-c1ccn2ncc(C(=O)Nc3cc(-c4nnn(C5CC5)n4)c(F)cc3Cl)c2c1 (single isomer, unassigned) [Example 287, N-(2-chloro-5-(2-cyclopropyl-2H-tetrazol-5-yl)-4-fluorophenyl)-5-(1-((2R,3R)-3-hydroxybutan-2-yl)-3-methyl-1H-pyrazol-4-yl)pyrazolo[1,5-a]pyridine-3-carboxamide or N-(2-chloro-5-(2-cyclopropyl-2H-tetrazol-5-yl)-4-fluorophenyl)-5-(1-((2S,3S)-3-hydroxybutan-2-yl)-3-methyl-1H-pyrazol-4-yl)pyrazolo[1,5-a]pyridine-3-carboxamide]",0.9 nM
10,"COCCNc1ccc2c(C(=O)Nc3cc(-c4nnn(C5CN(C(=O)OC)C5)n4)ccc3Cl)cnn2c1 [Example 164, Methyl 3-(5-(4-chloro-3-(6-((2-methoxyethyl)amino)pyrazolo[1,5-a]pyridine-3-carboxamido)phenyl)-2H-tetrazol-2-yl)azetidine-1-carboxylate]",8 nM

# Further lines, results first:
row,IC50,Structure (SMILES)
1,3.6 nM,"Cc1nnn(-c2ccc(C)c(NC(=O)c3cnn4ccc(Nc5cn[nH]c5)cc34)c2)n1 [Example 231, 5-((1H-pyrazol-4-yl)amino)-N-(2-methyl-5-(5-methyl-2H-tetrazol-2-yl)phenyl)pyrazolo[1,5-a]pyridine-3-carboxamide]"
2,2.6 nM,"Cc1ccc(-c2nnn(C3CC(F)(F)C3)n2)cc1NC(=O)c1cnn2ccc(NCC(F)(F)CO)cc12 [Example 102, 5-((2,2-difluoro-3-hydroxypropyl)amino)-N-(5-(2-(3,3-difluorocyclobutyl)-2H-tetrazol-5-yl)-2-methylphenyl)pyrazolo[1,5-a]pyridine-3-carboxamide]"
3,2.7 nM,"Cc1ccc(-n2nnc(C3CC3F)n2)cc1NC(=O)c1cnn2ccc(-c3cnn(CC(C)(C)O)c3)cc12 (stereo not drawn) [Example 222, N-(5-(5-(2-fluorocyclopropyl)-2H-tetrazol-2-yl)-2-methylphenyl)-5-(1-(2-hydroxy-2-methylpropyl)-1H-pyrazol-4-yl)pyrazolo[1,5-a]pyridine-3-carboxamide]"
4,0.8 nM,"CCn1nnc(-c2cc(NC(=O)c3cnn4ccc(-c5cn(CC(C)(C)O)nc5C)cc34)c(Cl)cc2F)n1 [Example 265, N-(2-chloro-5-(2-ethyl-2H-tetrazol-5-yl)-4-fluorophenyl)-5-(1-(2-hydroxy-2-methylpropyl)-3-methyl-1H-pyrazol-4-yl)pyrazolo[1,5-a]pyridine-3-carboxamide]"
5,0.3 nM,"Cc1ccc(-c2nnn(C3CC3)n2)cc1NC(=O)c1cnn2ccc(-c3cn([C@H](C)[C@H](C)O)nc3C)cc12 (single isomer, unassigned) [Example 269, N-(5-(2-cyclopropyl-2H-tetrazol-5-yl)-2-methylphenyl)-5-(1-((2R,3S)-3-hydroxybutan-2-yl)-3-methyl-1H-pyrazol-4-yl)pyrazolo[1,5-a]pyridine-3-carboxamide or N-(5-(2-cyclopropyl-2H-tetrazol-5-yl)-2-methylphenyl)-5-(1-((2S,3R)-3-hydroxybutan-2-yl)-3-methyl-1H-pyrazol-4-yl)pyrazolo[1,5-a]pyridine-3-carboxamide]"
6,46.6 nM,"COC(=O)N1CC(n2nnc(-c3ccc(C)c(NC(=O)c4cnn5ccc(N6CCN(CC(F)F)CC6)cc45)c3)n2)C1 [Example 73, methyl 3-(5-(3-(5-(4-(2,2-difluoroethyl)piperazin-1-yl)pyrazolo[1,5-a]pyridine-3-carboxamido)-4-methylphenyl)-2H-tetrazol-2-yl)azetidine-1-carboxylate]"
7,2.5 nM,"Cc1ccc(-c2nnn(CCOC(C)C)n2)cc1NC(=O)c1cnn2ccccc12 [Example 11, N-(5-(2-(2-isopropoxyethyl)-2H-tetrazol-5-yl)-2-methylphenyl)pyrazolo[1,5-a]pyridine-3-carboxamide]"
8,53.1 nM,"COC(=O)N1CC(n2nnc(-c3ccc(C)c(NC(=O)c4cnn5ccc(N6CCC[C@H](O)C6)cc45)c3)n2)C1 [Example 70, methyl (S)-3-(5-(3-(5-(3-hydroxypiperidin-1-yl)pyrazolo[1,5-a]pyridine-3-carboxamido)-4-methylphenyl)-2H-tetrazol-2-yl)azetidine-1-carboxylate]"
9,31.6 nM,"COC(=O)N1CC(n2nnc(-c3ccc(C)c(NC(=O)c4cnn5ccc(N6CCC(F)(F)CC6)cc45)c3)n2)C1 [Example 147, methyl 3-(5-(3-(5-(4,4-difluoropiperidin-1-yl)pyrazolo[1,5-a]pyridine-3-carboxamido)-4-methylphenyl)-2H-tetrazol-2-yl)azetidine-1-carboxylate]"
10,161 nM,"COCCOCCS(=O)(=O)N1CC(n2nnc(-c3ccc(C)c(NC(=O)c4cnn5ccccc45)c3)n2)C1 [Example 185, N-(5-(2-(1-((2-(2-methoxyethoxy)ethyl)sulfonyl)azetidin-3-yl)-2H-tetrazol-5-yl)-2-methylphenyl)pyrazolo[1,5-a]pyridine-3-carboxamide]"
11,0.5 nM,"Cc1ccc(-c2nnn(C3CC3)n2)cc1NC(=O)c1cnn2ccc(-c3cnn([C@@H](C)[C@H](C)O)c3C)cc12 (single isomer, unassigned) [Example 270, N-(5-(2-cyclopropyl-2H-tetrazol-5-yl)-2-methylphenyl)-5-(1-((2S,3S)-3-hydroxybutan-2-yl)-5-methyl-1H-pyrazol-4-yl)pyrazolo[1,5-a]pyridine-3-carboxamide or N-(5-(2-cyclopropyl-2H-tetrazol-5-yl)-2-methylphenyl)-5-(1-((2R,3R)-3-hydroxybutan-2-yl)-5-methyl-1H-pyrazol-4-yl)pyrazolo[1,5-a]pyridine-3-carboxamide]"
12,0.4 nM,"Cc1cc(F)c(-c2nnn(C3CC3)n2)cc1NC(=O)c1cnn2ccc(-c3c(C)nn(C[C@H](C)O)c3C)cc12 [Example 254, (S)-N-(5-(2-cyclopropyl-2H-tetrazol-5-yl)-4-fluoro-2-methylphenyl)-5-(1-(2-hydroxypropyl)-3,5-dimethyl-1H-pyrazol-4-yl)pyrazolo[1,5-a]pyridine-3-carboxamide]"
13,1.5 nM,"Cc1ccc(-c2nnn(C)n2)cc1NC(=O)c1cnn2ccc(-c3cn(CCO)nc3C)cc12 [Example 228, 5-(1-(2-hydroxyethyl)-3-methyl-1H-pyrazol-4-yl)-N-(2-methyl-5-(2-methyl-2H-tetrazol-5-yl)phenyl)pyrazolo[1,5-a]pyridine-3-carboxamide]"
14,16.9 nM,"Cc1ccc(-c2nnn([C@H]3C[C@H](CO)C3)n2)cc1NC(=O)c1cnn2ccccc12 [Example 200, N-(5-(2-((1r,3r)-3-(hydroxymethyl)cyclobutyl)-2H-tetrazol-5-yl)-2-methylphenyl)pyrazolo[1,5-a]pyridine-3-carboxamide]"
